Assay results from PMC4805082, “Seizure control by decanoic acid through direct AMPA receptor inhibition” (Brain, 2015).

How the values were obtained:
[1] = tested on: epileptiform activity (burst discharges) in hippocampal slices induced by low-Mg2+; test: In vitro seizure model, low-Mg2+ induced epileptiform activity in hippocampal slices; type: cell-based, rat; conditions: 10 mM; low magnesium
Experimental: (§1) Male Sprague-Dawley rats (postnatal Days 19–30) were sacrificed using an overdose of isoflurane or pentobarbitone (500 mg/kg). After decapitation the brain was rapidly removed, the hippocampus or entorhinal cortex-hippocampus slices was dissected from the brain and […] thick transverse slices were prepared on a VT1200S vibratome (Leica) or Vibratome (Vibratome® 1500 sectioning system, Intracell). The slicing was performed in ice-cold sucrose-based solution containing (in mM): 75 sucrose, 87 NaCl, 22 glucose, 2.5 KCl, 7 MgCl2, 1.25 NaH2PO4, 0.5 CaCl2 and 25 NaHCO3, pH 7.4, 315–330 mOsm equilibrated with 95% O2 plus 5% CO2. The slices were then stored in a continuously oxygenated humidified interface holding chamber containing oxygenated artificial CSF (in mM): 120 NaCl, 22 glucose, 2.5 KCl, 1.3 MgSO4, 1 NaH2PO4, 25 NaHCO3 and 2.5 CaCl2, pH 7.4 296 mOsm, where they recovered for at least 1 h before use.
During the experiment, slices were transferred from the interface chamber into a submerged recording chamber, designed to optimize wash-in and wash-out of drugs, and continuously perfused using gravity feed at 3–6 ml/min with prewarmed (36°C) oxygenated artificial CSF (95% O2, 5% CO2). Field potentials were recorded with a glass microelectrode (1–2 MΩ) filled with artificial CSF solution placed in stratum radiatum of CA1 and were filtered at 1 kHz and digitized at 2 kHz (using an npi EXT-02F extracellular amplifier recorded with WinEDR software). In the pentylenetetrazol model, the epileptiform (paroxysmal) activity was induced by application of pentylenetetrazol (2 mM) to the perfusate and [K^+] was increased (to 6 mM); in low-Mg^2+ model, the epileptiform activity was elicited by using Mg^2+-free artificial CSF. Once the frequency of the paroxysmal activity was stable for at least 10 min, compounds were applied to the perfusate for the following 40 min, and washed out for a remaining 20 min. The anticonvulsant effects were evaluated by measuring the change in the frequency of the discharges at minute intervals. […]

[2] = tested on: epileptiform activity (burst discharges) in hippocampal slices induced by pentylenetetrazol; test: In vitro seizure model, pentylenetetrazol-induced epileptiform activity in hippocampal slices; type: cell-based, rat; conditions: pentylenetetrazol 2 mM, K+ 6 mM
Experimental: as §1
During the experiment, slices were transferred from the interface chamber into a submerged recording chamber, designed to optimize wash-in and wash-out of drugs, and continuously perfused using gravity feed at 3–6 ml/min with prewarmed (36°C) oxygenated artificial CSF (95% O2, 5% CO2). Field potentials were recorded with a glass microelectrode (1–2 MΩ) filled with artificial CSF solution placed in stratum radiatum of CA1 and were filtered at 1 kHz and digitized at 2 kHz (using an npi EXT-02F extracellular amplifier recorded with WinEDR software). In the pentylenetetrazol model, the epileptiform (paroxysmal) activity was induced by application of pentylenetetrazol (2 mM) to the perfusate and [K^+] was increased (to 6 mM); in low-Mg^2+ model, the epileptiform activity was elicited by using Mg^2+-free artificial CSF. Once the frequency of the paroxysmal activity was stable for at least 10 min, compounds were applied to the perfusate for the following 40 min, and washed out for a remaining 20 min. The anticonvulsant effects were evaluated by measuring the change in the frequency of the discharges at minute intervals. The discharge frequency was then averaged every 5 min during the experiment and normalized to baseline. The compounds applied in this study included: 1% dimethyl sulphoxide (DMSO), acetone (10 mM, Sigma), (±)-sodium 3-hydroxybutyrate (BHB) (10 mM, Sigma), and decanoic acid (1 mM, Alfa Aesar Pty). Acetone and decanoic acids were prepared as 1000× stocks in DMSO, and BHB was prepared as 100× stock. Stocks were dissolved in artificial CSF to achieve their final concentrations during experiments, and where applicable, experiments included constant levels of DMSO.

AMPA receptor GluA2/3 = molecular target: T1, AMPA receptor GluA2/3 (Homo sapiens, UniProt P42262+P42263); test: Two-electrode voltage clamp, AMPA receptor GluA2/3 expressed in Xenopus oocytes; type: cell-based; conditions: for AMPA receptor currents: compound 1 mM, currents elicited by 100 µM L-glutamate, −50 mV
T1 construct: expressed in transfected cells; host or cells: Xenopus laevis oocytes injected with cRNA (1:1 mix)
Experimental: The AMPA receptor (flip isoform) cDNAs inserted in a SP6 polymerase expression vector (pSP6T) were a generous gift from Prof. Ralf Schoepfer (NPP, UCL). […] AMPA receptor cRNAs were mixed in a nominal 1:1 ratio and ∼5 ng was injected per oocyte.
(§2) Xenopus laevis oocytes were purchased from the European Xenopus Resource Centre, University of Portsmouth. Stage V to VI oocytes were mechanically dissected and then subjected to gentle shaking for ∼30–50 min at room temperature with modified Barth’s solution (in mM): 88 NaCl, 1 KCl, 2.4 NaHCO3, 0.82 MgCl2, 0.77 CaCl2, 15 Tris-Cl, adjusted to pH 7.4 with NaOH (Sigma-Aldrich), supplemented with 50 IU/ml penicillin and 50 µg/ml streptomycin (Invitrogen) and 50 µg/ml tetracycline (Sigma-Aldrich) and 1% collagenase (type 1A). Healthy oocytes were manually defolliculated and the injections of cRNA for homomeric subunits alone (GluA1), or heteromeric mixtures of two subunits together (GluA1/GluA2 or GluA2/GluA3) were made using an automated Drummond Nanoinject II injector. The oocytes were then incubated at 17°C in modified Barth’s solution for at least 48 h before use in electrophysiological recordings.
Experiments were performed at room temperature (∼21–23°C). […] Current and voltage electrodes were filled with 300 mM KCl and made from thin-walled borosilicate glass (GC150TF-7.5, Harvard Apparatus) using a PC-10 electrode puller (Narashige Instruments) and had resistances of 0.5–2 MΩ. […] Compounds were dissolved in distilled water or DMSO and dissolved in bathing solution to achieve their final concentrations during experiments, and were applied under gravity flow during the experiment by using a multi-valve perfusion system (VC3-8C, ALA Scientific Instruments). The bath solutions were perfused at a rate of 10 ml/min. […] Data acquisition was performed using the Windows PC-based program, WinEDR v3.0.6 (John Dempster, University of Strathclyde, UK).
Statistical analysis was performed using ANOVA with Tukey post hoc test, paired t-test or unpaired t-test.

AMPA receptor = tested on: AMPA receptor; parameters: method as in Arai, 2001; conditions: 50 µM; ref Arai, 2001; cited from earlier work
AMPA receptor GluA1 = molecular target: T2, AMPA receptor GluA1 (Homo sapiens, UniProt P42261); test: Two-electrode voltage clamp, homomeric GluA1 AMPA receptor expressed in Xenopus oocytes; type: cell-based; conditions: glutamate 100 µM
T2 construct: expressed in transfected cells; host or cells: Xenopus laevis oocytes injected with cRNA
Experimental: The AMPA receptor (flip isoform) cDNAs inserted in a SP6 polymerase expression vector (pSP6T) were a generous gift from Prof. Ralf Schoepfer (NPP, UCL). RNA was transcribed in vitro from MluI linearized transcripts using the SP6 Promega RiboMAX® RNA synthesis kit according to manufacturer’s protocols except for the addition of 0.75 mM capping nucleotide m^7G(5’)ppp(5’)G (Promega) and 1.6 mM GTP. cRNA concentrations and integrity were estimated by the intensity of fluorescence bands in RNA denaturating gels. AMPA receptor cRNAs were mixed in a nominal 1:1 ratio and ∼5 ng was injected per oocyte.
as §2
Experiments were performed at room temperature (∼21–23°C). An oocyte was placed in a recording chamber (0.3–0.5 ml volume) and perfused with ND96 solution (96 mM NaCl, 2 mM KCl, 1.8 mM CaCI2, 1 mM MgCl2, 5 mM HEPES, with pH adjusted to 7.5). Current and voltage electrodes were filled with 300 mM KCl and made from thin-walled borosilicate glass (GC150TF-7.5, Harvard Apparatus) using a PC-10 electrode puller (Narashige Instruments) and had resistances of 0.5–2 MΩ. Oocytes were voltage-clamped to a holding potential of −50 mV or −60 mV using a Turbo TEC-03 amplifier (npi electronics). […]

field EPSP = tested on: field EPSP; parameters: method as in Ceolin et al., 2012; conditions: at 30–50 nM; ref Ceolin et al., 2012; cited from earlier work
[3] = humans; ref Rogawski and Hanada, 2013; cited from earlier work
[4] = tested on: epileptiform activity (burst discharges) in hippocampal slices induced by pentylenetetrazol; parameters: method as in Chang et al., 2012, 2013; conditions: 1 mM; ref Chang et al., 2012, 2013; cited from earlier work
[5] = tested on: epileptiform activity (burst discharges) in hippocampal slices induced by low-Mg2+; parameters: method as in Chang et al., 2012, 2013; conditions: 1 mM; ref Chang et al., 2012, 2013; cited from earlier work

T1 sequence (P42262 22-883 isoform P42262-2 limits assumed): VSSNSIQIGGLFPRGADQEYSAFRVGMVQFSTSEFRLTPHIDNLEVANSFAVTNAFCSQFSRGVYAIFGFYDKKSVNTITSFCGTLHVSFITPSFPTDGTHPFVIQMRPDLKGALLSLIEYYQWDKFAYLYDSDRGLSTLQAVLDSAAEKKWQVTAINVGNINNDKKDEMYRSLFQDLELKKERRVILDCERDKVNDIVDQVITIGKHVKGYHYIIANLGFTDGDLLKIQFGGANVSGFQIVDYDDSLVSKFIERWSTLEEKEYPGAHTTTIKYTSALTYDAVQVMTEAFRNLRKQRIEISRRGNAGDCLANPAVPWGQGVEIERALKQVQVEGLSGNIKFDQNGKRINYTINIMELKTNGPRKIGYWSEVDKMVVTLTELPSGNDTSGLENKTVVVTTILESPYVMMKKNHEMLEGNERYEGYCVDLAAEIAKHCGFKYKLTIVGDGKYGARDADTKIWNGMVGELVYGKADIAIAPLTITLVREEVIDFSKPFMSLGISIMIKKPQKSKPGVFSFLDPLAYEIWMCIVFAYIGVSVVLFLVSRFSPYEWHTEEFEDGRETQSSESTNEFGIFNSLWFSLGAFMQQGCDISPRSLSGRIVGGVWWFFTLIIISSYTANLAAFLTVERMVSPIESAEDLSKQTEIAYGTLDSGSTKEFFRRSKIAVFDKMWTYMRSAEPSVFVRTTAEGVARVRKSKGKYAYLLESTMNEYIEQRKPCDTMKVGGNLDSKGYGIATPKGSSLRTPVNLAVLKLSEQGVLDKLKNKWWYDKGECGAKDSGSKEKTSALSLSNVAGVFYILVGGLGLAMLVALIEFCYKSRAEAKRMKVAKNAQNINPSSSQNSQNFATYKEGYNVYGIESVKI
T1 sequence (P42263 29-894 isoform P42263-2 limits assumed): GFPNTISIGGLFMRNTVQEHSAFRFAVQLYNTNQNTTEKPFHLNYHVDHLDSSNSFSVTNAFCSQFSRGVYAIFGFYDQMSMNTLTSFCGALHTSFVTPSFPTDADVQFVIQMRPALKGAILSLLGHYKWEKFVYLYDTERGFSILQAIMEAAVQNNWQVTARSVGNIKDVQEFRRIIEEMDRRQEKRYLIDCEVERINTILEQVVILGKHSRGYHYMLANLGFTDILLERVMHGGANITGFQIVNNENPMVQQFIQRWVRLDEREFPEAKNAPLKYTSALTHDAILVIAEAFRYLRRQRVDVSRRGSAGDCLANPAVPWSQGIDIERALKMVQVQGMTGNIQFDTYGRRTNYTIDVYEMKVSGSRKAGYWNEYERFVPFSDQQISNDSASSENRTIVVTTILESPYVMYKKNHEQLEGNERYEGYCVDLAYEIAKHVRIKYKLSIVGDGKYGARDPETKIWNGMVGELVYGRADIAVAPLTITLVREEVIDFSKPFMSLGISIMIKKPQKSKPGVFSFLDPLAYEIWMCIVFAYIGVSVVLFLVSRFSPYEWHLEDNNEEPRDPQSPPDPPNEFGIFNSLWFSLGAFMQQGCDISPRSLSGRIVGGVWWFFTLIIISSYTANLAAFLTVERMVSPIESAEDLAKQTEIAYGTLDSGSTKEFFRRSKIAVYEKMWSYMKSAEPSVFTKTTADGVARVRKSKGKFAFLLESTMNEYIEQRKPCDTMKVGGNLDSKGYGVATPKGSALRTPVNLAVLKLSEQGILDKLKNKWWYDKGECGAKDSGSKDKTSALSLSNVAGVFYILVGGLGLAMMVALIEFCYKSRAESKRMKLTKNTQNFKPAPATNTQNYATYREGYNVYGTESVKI
T2 sequence (P42261 19-906 isoform P42261-2 limits assumed): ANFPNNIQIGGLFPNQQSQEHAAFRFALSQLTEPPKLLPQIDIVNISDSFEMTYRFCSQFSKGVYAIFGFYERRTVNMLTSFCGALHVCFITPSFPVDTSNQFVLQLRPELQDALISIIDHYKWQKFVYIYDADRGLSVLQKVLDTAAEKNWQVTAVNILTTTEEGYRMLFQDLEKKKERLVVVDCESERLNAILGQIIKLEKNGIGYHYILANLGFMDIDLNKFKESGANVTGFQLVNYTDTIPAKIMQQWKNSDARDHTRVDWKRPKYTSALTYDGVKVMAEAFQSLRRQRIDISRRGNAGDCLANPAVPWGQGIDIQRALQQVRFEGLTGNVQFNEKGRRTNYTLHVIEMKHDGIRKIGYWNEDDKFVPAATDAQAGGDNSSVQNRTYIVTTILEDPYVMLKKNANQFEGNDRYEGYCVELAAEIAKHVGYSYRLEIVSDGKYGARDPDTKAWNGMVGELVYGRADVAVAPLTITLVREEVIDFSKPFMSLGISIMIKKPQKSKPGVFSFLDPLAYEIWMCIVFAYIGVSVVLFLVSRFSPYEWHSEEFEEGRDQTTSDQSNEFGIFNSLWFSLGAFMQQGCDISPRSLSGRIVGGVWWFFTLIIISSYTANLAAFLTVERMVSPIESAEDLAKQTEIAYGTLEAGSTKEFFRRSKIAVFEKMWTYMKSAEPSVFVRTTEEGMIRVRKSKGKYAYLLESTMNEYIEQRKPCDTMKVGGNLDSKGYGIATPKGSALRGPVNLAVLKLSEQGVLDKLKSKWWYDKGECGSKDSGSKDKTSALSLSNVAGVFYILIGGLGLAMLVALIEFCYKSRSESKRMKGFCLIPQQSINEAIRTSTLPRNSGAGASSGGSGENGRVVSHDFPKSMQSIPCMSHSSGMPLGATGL

In the case of `CC(O)CC(=O)O` (racemic) [β-hydroxybutyrate, (±)-sodium 3-hydroxybutyrate], the “effect on epileptiform activity” value [1] is reported as “did not have any effect” and the “effect on epileptiform activity” value ([2]; 10 mM) is reported as “did not have any effect”.

With `CCCCC(C)CCC(=O)O` (stereo not drawn) [4-methyloctanoic acid] the IC50 (AMPA receptor GluA2/3; glutamate 100 µM, read-out: IC50, inhibition of glutamate-induced AMPA receptor current) was 840 ± 40 µM.

For `CC1=NN=C(c2ccc(N)cc2)c2cc3c(cc2C1)OCO3` [GYKI 52466, reference compound], the “effect on epileptiform activity” value ([2]; 50 µM) is listed as “completely blocked” and the “decrease in AMPA receptor responses” value (AMPA receptor) is listed as 60–70%.

In the case of `CC(C)=O` [acetone], the “effect on epileptiform activity” value [1] is reported as “did not have any effect” and the “effect on epileptiform activity” value ([2]; 10 mM) is reported as “did not have any effect”.

In the case of `CCCCCCCC(=O)O` [octanoic acid, reference compound], the “effect on homomeric GluA1 currents” value (AMPA receptor GluA1) is reported as “no effect” and the AMPA receptor currents (AMPA receptor GluA2/3) is reported as “no effect”.

In the case of `N#Cc1ccccc1-c1cc(-c2ccccn2)cn(-c2ccccc2)c1=O` [perampanel], the “reduction in field EPSP slope” value (field EPSP) is given as ~20% and the “free concentrations observed to be efficacious” value [3] is given as 30 to 50 nM.

For `CCCC(CCC)C(=O)O` [valproic acid], the “effect on homomeric GluA1 currents” value (AMPA receptor GluA1) is given as “no effect”, the AMPA receptor currents (AMPA receptor GluA2/3) is given as “no action” and the “effect on seizure activity” value [4] is given as “only modifies seizure activity”. For the same compound, the “effect on seizure activity” value [5] was “only modifies seizure activity”.
